Data reported in patent US20130252930A1 (BIOMARIN PHARMACEUTICAL INC., priority 2010, published 2013).
Read-outs that look alike come from different tables or passages of the source.

How the values were obtained:
[1] = target: T1, CYP17 (human testicular microsome) (Homo sapiens, UniProt P05093); assay: CYP17 enzymatic assay (% inhibition at 1 nM) (Biological Example 12); assay type: biochemical
T1 construct: using microsomal fraction from human testis (Celsis Cat #S00110) as the enzyme source; tissue Celsis S00110; host or cells: human testis microsomal fraction
T1 sequence (P05093 1-508): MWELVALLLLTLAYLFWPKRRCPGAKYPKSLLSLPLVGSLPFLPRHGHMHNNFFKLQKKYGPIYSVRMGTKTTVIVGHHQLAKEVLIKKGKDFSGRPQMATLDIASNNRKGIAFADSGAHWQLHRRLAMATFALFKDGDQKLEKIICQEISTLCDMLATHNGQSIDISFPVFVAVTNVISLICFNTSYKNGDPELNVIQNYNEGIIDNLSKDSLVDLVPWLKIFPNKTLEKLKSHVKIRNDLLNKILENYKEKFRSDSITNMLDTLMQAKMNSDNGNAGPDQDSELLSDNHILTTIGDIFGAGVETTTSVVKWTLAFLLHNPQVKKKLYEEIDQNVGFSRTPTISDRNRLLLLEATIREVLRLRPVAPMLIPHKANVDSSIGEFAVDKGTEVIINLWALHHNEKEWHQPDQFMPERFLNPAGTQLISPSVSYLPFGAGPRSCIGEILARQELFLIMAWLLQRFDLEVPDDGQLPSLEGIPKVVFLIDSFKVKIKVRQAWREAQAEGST

[2] = target: T2, Cyp21 enzyme (Human HEK 293-Cyp21 stable transfected cells) (Homo sapiens, UniProt P08686); assay: CYP21-HEK293 enzymatic assay (% inhibition at 100 nM) (Biological Example 10); assay type: cell-based; conditions: HEK 293-Cyp21 cells
T2 construct: expressed in transfected cells
T2 sequence (P08686 1-495): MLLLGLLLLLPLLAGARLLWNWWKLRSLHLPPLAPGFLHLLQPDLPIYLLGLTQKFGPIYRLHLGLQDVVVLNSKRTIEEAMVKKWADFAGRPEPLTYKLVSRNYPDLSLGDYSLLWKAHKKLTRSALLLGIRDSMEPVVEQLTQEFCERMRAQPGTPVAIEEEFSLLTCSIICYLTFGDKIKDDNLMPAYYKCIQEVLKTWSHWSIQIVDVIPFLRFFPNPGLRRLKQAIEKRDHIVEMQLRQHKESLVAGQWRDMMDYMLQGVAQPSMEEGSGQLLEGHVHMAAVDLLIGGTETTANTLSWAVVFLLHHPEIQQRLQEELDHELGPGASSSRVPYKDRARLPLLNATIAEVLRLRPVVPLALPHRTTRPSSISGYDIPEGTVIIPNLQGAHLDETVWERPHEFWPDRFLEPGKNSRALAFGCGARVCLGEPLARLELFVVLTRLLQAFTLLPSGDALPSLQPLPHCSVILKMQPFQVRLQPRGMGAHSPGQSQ
Description: Proceeding using methods similar to those described in Biological Example 11, the percent inhibition at 100 nM was measured.
This assay was used to determine compound activity against Cyp21 enzyme. Human HEK 293-Cyp21 stable transfected cells (maintained in complete growth media DMEM+10% FBS, supplemented with 125 ug/mL Hygromycin) were seeded in a 96-well plate at 20,000 cells/well/100 uL in DMEM plus 10% FBS and allowed to attach overnight. The next day, 20 μL medium was carefully removed and 10 μL of 10× pre-made compounds in DMEM+10% FBS+10% methanol was transferred to the wells to final concentrations of 1000, 100, 10, 1, or 0.1 nM. Mock treatment was 1% methanol in growth media and the cells were left at 37° C., 5% CO2 for 5 hr. After the incubation, 10 μL of substrate progesterone (Sigma) was added to the wells to make a final concentration of 10 μM. The cells were incubated the cells at 37° C. for 20 hr. At the end of incubation, 90 μL of conditioned media was removed to measure DOC level by ELISA.
Preparation of the DOC ELISA: 100 μL of coating buffer (0.025M PBS pH 7.4) containing 200 ng/mL DOC-3-carboxymethyloxime-BSA (Steraloids. inc, Cat#3469-000) was added to each well of a 96-well plate and incubated overnight at 4° C. The next day, the plates were washed twice with 250 μl of wash solution (0.015M PBS pH 7.4 containing 0.05% Tween 20). After being washed, the wells were blocked with 250 μL blocking buffer (3% BSA in 0.025M PBS, pH 7.4) at 37° C. for 2 h. The plates were washed again 3 times as before, and then 90 μL of sample /standards (prepared in complete growth media) was added into the appropriate wells followed by 10 μL of antibody solution (1:450 rabbit anti-DOC in 0.6% BSA/PBS). The plates were incubated at room temperature for 2 h on a shaker. The contents of the wells were removed and the plate was washed 4 times. After the final wash, 100 μL of secondary antibody (1:12000 HRP-goat-anti-rabbit IgG conjugate 0.6% BSA/PBS) was added into each well. The plate was incubated at 30° C. for 45 min. The plate was washed again 4 times and 100 μL of TMB substrate solution was added to each well. The plate was incubated at room temperature for 10 min. 100 μL of stop solution was added to each well and the optical density was read at 450 nm.
The mean absorbance value for each sample was used to determine the corresponding concentration from the standard curve. Data was analyzed with “log(antagonist) vs response variable slope” under “non-linear regression analysis” using Prism5 software.

[3] = Human liver microsome stability assay (Biological Example 8b); conditions: liver microsomes, pH 7.4
Description: The reaction was started with addition of excess NADPH (5 mg/mL, 15 μL in 0.1 M potassium phosphate buffer, 1.0 mM EDTA, pH 7.4), the total volume is 45 μL (compound final concentration was 1 μM). […] 50 μL of the supernatant was transferred from each well into a 96-well sample plate containing 50 μL of ultra-pure water (Millipore) for LC-MS/MS analysis.

[4] = target: T1, CYP17 (human testicular microsome); assay: CYP17 enzymatic assay (IC50) (Biological Example 4); assay type: biochemical; conditions: human testicular microsome, read-out: Biological Example No. 4: CYP17 enzymatic assay IC50
Description: The assays were performed in 96-well plates. Typical assays were carried out in total 100 μL volume that included test compounds at designated concentrations, 1× reaction buffer, 0.5 mM NADPH, 1 μM 17α-hydroxypregnenolone, and 2.5 μL of diluted human testicular microsome (Celsis. Cat #S00110). Reaction without test compound served as positive control. Reactions were allowed to incubate at 37° C. for 90 minutes with gentle shaking. The reaction was stopped by directly applying the enzymatic reaction mixture to ELISA plate for evaluation of DHEA concentration according to manufacturer's protocol (IBL America). A standard curve (OD450 vs. DHEA concentration) was generated using purified DHEA.

[5] = target: T3, CYP17 (H295R cells) (Homo sapiens, UniProt P05093); assay: CYP17 cellular assay (IC50), testosterone in H295R cells (Biological Example 7); assay type: cell-based; conditions: H295R cells
T3 construct: endogenous in cells; host or cells: H295R cells
T3 sequence (P05093 1-508): T1 sequence (P05093 1-508)
In short: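 H295R cells cultured 24 h, then exposed to compound at 100, 10, 1, 0.1 nM final in serum-free DMEM/F-12 with ITS+ and 0.1% methanol for 24 h at 37 °C. Medium testosterone measured by ELISA and plotted against compound concentration.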

[6] = system: rat Cyp11B enzyme (rat adrenal mitochondria); assay: CYP11B enzymatic assay (% inhibition at 100 nM) (Biological Example 9); assay type: biochemical
Description: Adrenals excised from Sprague Dawley rats were homogenized, and mitochondria fraction were prepared by a series of centrifugation as described in Shuji Ohno, et al. J. of Steroid Biochemistry & Molecular Biology 2002, 80, 355-363. Prepared mitochondria protein was washed and resuspended in Buffer B (0.21 M mannitol, 70 mM sucrose, 5 mM MgCl2, 0.5 mM CaCl2, 20 mM Tris-HCl (pH 7.4) and 1 mM DTT, […]). The protein concentration was determined by BCA assay and stored as 10 μL aliquots at −80° C.
The rat Cyp11B enzyme assay was performed in 96-well plates. Typical assays were carried out in total 50 μL volume that included test compounds at 100 nM concentration, 1× Buffer B, 0.5 mM NADPH, 0.1 μM 11-deoxycortisol, and 2 μL of prepared rat adrenal mitochondria (added last). Reaction without test compound served as positive control and reaction without NADPH served as negative control. Reactions were allowed to incubate at 37° C. for 60 min with gentle shaking. The reaction was stopped by directly applying the enzymatic reaction mixture (1:5 diluted in ELISA assay buffer) to ELISA plate for evaluation of cortisol concentration according to manufacturer's protocol (Assay Design).
The mean absorbance value for each sample was used to determine the corresponding concentration from the standard curve. Amount of cortisol in the negative control (reaction that dis not include NADPH) was subtracted from total cortisol. Percent inhibition (inhibition %) of the compound was calculated using normalized cortisol concentration based on following formula: 100−([Cortisol] of compound/[Cortisol] of positive control *100).

[7] = target: T1, CYP17 (human testicular microsome); assay: CYP17 enzymatic assay (% inhibition at 10 nM), version 1 (Biological Example 5); assay type: biochemical; conditions: 10 nM compound, DHEA by ELISA, read-out: Biological Example No. 5: CYP17 percent inhibition at 10 nM (version 1)
Description: The assays were performed in 96-well plates. Typical assays were carried out in total 100 μL volume that included test compounds at 10 nM concentration, 1× reaction buffer, 0.5 mM NADPH, 1 μM 17α-hydroxypregnenolone, and 2.5 μL of diluted human testicular microsome (Celsis. Cat #S00110). Reaction without test compound served as positive control. Reactions were allowed to incubate at 37° C. for 90 minutes with gentle shaking. The reaction was stopped by directly applying the enzymatic reaction mixture to ELISA plate for evaluation of DHEA concentration according to manufacturer's protocol (IBL America). A standard curve (OD450 vs. DHEA concentration) was generated using purified DHEA. […] Percent inhibition (inhibition %) of the compound was calculated using normalized DHEA concentration based on following formula: 100-([DHEA] of compound/[DHEA] of positive control *100).

[8] = 1 nM compound, DHEA by ELISA, read-out: Biological Example No. 12: CYP17 percent inhibition at 1 nM
[9] = 100 nM compound, read-out: Biological Example No. 10: CYP21-HEK293 percent inhibition at 100 nM
[10] = compound at 100 nM, read-out: Biological Example No. 10: CYP21-HEK293 enzymatic assay % inhibition at 100 nM
[11] = compound at 1 nM, read-out: CYP17 enzymatic assay % inhibition at 1 nM (Biological Example No. 12)

C[C@]12CCC(=O)C=C1CCC1C2CC[C@]2(C)C(c3cccnc3)=CCC12 (stereo partly drawn) [B, (10R,13S)-10,13-dimethyl-17-(pyridin-3-yl)-6,7,8,9,10,11,12,13,14,15-decahydro-1H-cyclopenta[a]phenanthren-3(2H)-one, reference compound]
inhibition at 0.001 µM [1, 8]: > 50%
inhibition at 0.1 µM [2, 9]: ≥ 30%

C[C@]12CC[C@H](O)CC1=CC[C@@H]1[C@@H]2CC[C@]2(C)C(c3cccnc3)=CC[C@@H]12 [C, (3S,8R,9S,10R,13S,14S)-10,13-dimethyl-17-(pyridin-3-yl)-2,3,4,7,8,9,10,11,12,13,14,15-dodecahydro-1H-cyclopenta[a]phenanthren-3-ol, reference compound]
half-life at 1 μM [3]: 1 to 50 min
IC50 ([4]; DHEA by ELISA): < 0.011 µM
IC50 ([5]; testosterone by ELISA, 24 hours, read-out: Biological Example No. 7: CYP17 cellular assay IC50): < 0.015 µM
Biological Example No. 9: CYP11B percent inhibition at 100 nM ([6]; 100 nM compound, cortisol by ELISA): T (T means the compound had a percent inhibition of less than 32% when tested at 100 nM)
inhibition at 0.001 µM [1, 8]: > 50%
inhibition at 0.01 µM [7]: > 80%

Cc1cncc(C2=CC[C@H]3[C@@H]4CCC5=CC(=O)N(C)CC[C@]5(C)[C@H]4CC[C@]23C)c1 [Compound 54]
IC50 ([4]; DHEA by ELISA): < 0.011 µM
inhibition at 0.1 µM [2, 9]: < 30%
inhibition at 0.01 µM [7]: 50 to 80%

COc1cncc(C2=CC=C3[C@@H]4CCC5=CC(=O)NCC[C@]5(C)[C@H]4CC[C@]23C)c1 [Compound 86, (5aR,7aS)-8-(5-methoxypyridin-3-yl)-5a,7a-dimethyl-4,5,5a,5b,6,7,7a,10b,11,12-decahydrocyclopenta[5,6]naphtho[2,1-c]azepin-3(2H)-one]
IC50 ([4]; DHEA by ELISA): < 0.011 µM
inhibition at 0.1 µM [2, 9]: ≥ 30%
inhibition at 0.01 µM [7]: 50 to 80%

CCc1cncc(C2=CC[C@H]3[C@@H]4CCC5=CC(=O)N(C)CC[C@]5(C)[C@H]4CC[C@]23C)c1 [Compound 145]
inhibition at 0.1 µM [2, 9]: ≥ 30%
inhibition at 0.01 µM [7]: 50 to 80%

Cc1cncc(C2=CC=C3[C@@H]4CCC5=CC(=O)N(C)CC[C@]5(C)[C@H]4CC[C@]23C)c1 [Compound 160]
inhibition at 0.1 µM [2, 9]: < 30%
inhibition at 0.01 µM [7]: 50 to 80%

CC1CC2C3=CC=C(c4cncc(N)c4)[C@@]3(C)CCC2[C@@]2(C)CCC(=O)C=C12 (stereo partly drawn) [Compound 329, (10R,13S)-17-(5-aminopyridin-3-yl)-6,10,13-trimethyl-6,7,8,9,10,11,12,13-octahydro-1H-cyclopenta[a]phenanthren-3(2H)-one]
IC50 [4]: < 0.011 µM
inhibition at 0.1 µM [2, 10]: < 30%

C[C@]12CCC3C(CCC4=CC(=O)CC[C@@]43C)C1=CC=C2c1cncc(N)c1 (stereo partly drawn) [Compound 360, (10R,13S)-17-(5-aminopyridin-3-yl)-10,13-dimethyl-6,7,8,9,10,11,12,13-octahydro-1H-cyclopenta[a]phenanthren-3(2H)-one]
IC50 [4]: < 0.011 µM
inhibition at 0.1 µM [2, 10]: < 30%

C[C@]12CCC(=O)C=C1CC[C@@H]1[C@@H]2CC[C@]2(C)C(c3cccnc3)CC[C@@H]12 (stereo partly drawn) [Compound 419, (10R,13S)-10,13-dimethyl-17-(pyridin-3-yl)-6,7,8,9,10,11,12,13,14,15,16,17-dodecahydro-1H-cyclopenta[a]phenanthren-3(2H)-one]
inhibition at 0.001 µM [1, 11]: 10 to 50%
inhibition at 0.1 µM ([2]; compound at 100 nM, read-out: CYP21-HEK293 enzymatic assay % inhibition at 100 nM (Biological Example No. 10)): ≥ 30%

Cc1ccncc1C1=CCC2C3CN(C)C4=CC(=O)CC[C@]4(C)C3CC[C@]12C (stereo partly drawn) [Compound 444, (9aR,11aS)-5,9a,11a-trimethyl-1-(4-methylpyridin-3-yl)-3b,4,5,8,9,9a,9b,10,11,11a-decahydro-3H-cyclopenta[i]phenanthridin-7(3aH)-one]
IC50 ([5]; testosterone, read-out: CYP17 cellular assay IC50 (Biological Example No. 7)): < 0.015 µM
CYP11B enzymatic assay % inhibition at 100 nM (Biological Example No. 9) ([6]; compound at 100 nM): U (U means the compound had a percent inhibition of greater than or equal to 32%)
inhibition at 0.001 µM [1, 11]: 10 to 50%
